Legend:
AsPC-1 = test: OncoPanel cell proliferation assay, AsPC-1; conditions: AsPC-1, scale 0-10
Protocol: (§6) Cells were seeded into 384-well plates and incubated in a humidified atmosphere of 5% CO2 at 37° C. Compounds were added the day following cell seeding. At the same time, a time zero untreated cell plate was generated. After a 3-day incubation period, cells were fixed and stained to allow fluorescence imaging of nuclei. Compounds (1 mM stock solutions) were serially diluted in half-log steps from the highest test concentration (1 micromol), and assayed over 10 concentrations with a maximum assay concentration of 0.1% DMSO. Automated fluorescence microscopy was carried out using a Molecular Devices ImageXpress Micro XL high-content imager, and images were collected with a 4× objective. 16-bit TIFF images were acquired and analyzed with MetaXpress 5.1.0.41 software.
(§7) GI50 is the concentration needed to reduce the observed growth by half (midway between the curve maximum and the time zero value). […] In rare instances, values <0 or >10 may be observed. […] Curve-fitting, calculations, and report generation was performed using a custom data reduction engine and MathIQ based software (AIM).

NCIH446 = test: OncoPanel cell proliferation assay, NCIH446; assay type: cell-based, human; conditions: NCIH446, scale 0-10
Protocol: (§1) Cells were grown in RPMI 1640, 10% FBS, 2 mM L-alanyl-L-glutamine, 1 mM Na pyruvate, or a special medium. Cells were seeded into 384-well plates and incubated in a humidified atmosphere of 5% CO2 at 37° C. Compounds were added the day following cell seeding. At the same time, a time zero untreated cell plate was generated. After a 3-day incubation period, cells were fixed and stained to allow fluorescence imaging of nuclei. Compounds (1 mM stock solutions) were serially diluted in half-log steps from the highest test concentration ([…]), and assayed over 10 concentrations with a maximum assay concentration of 0.1% DMSO. Automated fluorescence microscopy was carried out using a Molecular Devices ImageXpress Micro XL high-content imager, and images were collected with a 4× objective. 16-bit TIFF images were acquired and analyzed with MetaXpress 5.1.0.41 software.
(§2) Cell proliferation was measured by the fluorescence intensity of an incorporated nuclear dye. The output is referred to as the relative cell count, where the measured nuclear intensity is transformed to percent of control (POC) using the following formula: […]
(§3) Cellular response parameters were calculated using nonlinear regression to a sigmoidal single-site dose response model:
(§4) Where y is a response measured at concentration x, A and B are the lower and upper limits of the response, C is the concentration at the response midpoint (EC50), and D is the Hill Slope (Ref. 1).
(§5) EC50 is the test compound concentration at the curve inflection point or half the effective response (parameter C of the fitted curve solution). GI50 is the concentration needed to reduce the observed growth by half (midway between the curve maximum and the time zero value). “Cell Count Activity Area” is an estimate of the integrated area above the curve (Barretina, et al. The Cancer Cell Line Encyclopedia enables predictive modelling of anticancer drug sensitivity. Nature 483: 603-607). […] In rare instances, values <0 or >10 may be observed. […] Curve-fitting, calculations, and report generation was performed using a custom data reduction engine and MathIQ based software (AIM).

NCI-H510A = test: OncoPanel cell proliferation assay, NCI-H510A; assay type: cell-based, human; conditions: scale 0-10
Protocol: as §1, §2, §3, §4, §5

MES-SA = test: OncoPanel cell proliferation assay, MES-SA; assay type: cell-based, human
Protocol: as §1, §2, §3, §4, §5

SK-NEP-1 = test: OncoPanel cell proliferation assay, SK-NEP-1; conditions: SK-NEP-1, scale 0-10
Protocol: as §6, §7

A101D = test: OncoPanel cell proliferation assay, A101D; assay type: cell-based, human; conditions: scale 0-10
Protocol: as §1, §2, §3, §4, §5

U-87 MG = test: OncoPanel cell proliferation assay, U-87 MG; assay type: cell-based, human; conditions: scale 0-10
Protocol: as §1, §2, §3, §4, §5

CHP-212 = test: OncoPanel cell proliferation assay, CHP-212; conditions: CHP-212, scale 0-10
Protocol: as §6, §7

CaOV3 = test: OncoPanel cell proliferation assay, CaOV3; assay type: cell-based, human; conditions: CaOV3, scale 0-10
Protocol: as §1, §2, §3, §4, §5

SHP-77 = test: OncoPanel cell proliferation assay, SHP-77; conditions: SHP-77, scale 0-10
Protocol: as §6, §7

G-402 = test: OncoPanel cell proliferation assay, G-402; assay type: cell-based, human; conditions: G-402, scale 0-10
Protocol: as §1, §2, §3, §4, §5

RL95-2 = test: OncoPanel cell proliferation assay, RL95-2; assay type: cell-based, human; conditions: RL95-2, scale 0-10
Protocol: as §1, §2, §3, §4, §5

CN[C@@H]1C[C@H]2O[C@@](C)([C@@H]1OC)n1c3ccccc3c3c4c(c5c6ccccc6n2c5c31)C(=O)NC4 [Staurosporine, reference compound]
Cell Count Activity Area (AsPC-1): 3.28
Cell Count Activity Area (NCIH446): 2.81
Cell Count Activity Area (NCI-H510A): 1.68
GI50 (MES-SA; Homo sapiens, 72 h, 3-day incubation, read-out: Cell Count GI50): 13 nM
Cell Count Activity Area (MES-SA; scale 0-10): 2.80
Cell Count Activity Area (SK-NEP-1): 2.78
Cell Count Activity Area (A101D): 4.56
Cell Count Activity Area (U-87 MG): 3.25
Cell Count Activity Area (CHP-212): 4.80
Cell Count Activity Area (CaOV3): 5.31
Cell Count Activity Area (SHP-77): 3.16
Cell Count Activity Area (G-402): 5.93
Cell Count Activity Area (RL95-2): 3.87
